Like-named read-outs stand apart in the source and are kept apart here.
Test system: hiPSC-CMs (iCell-Cardiomyocytes^2)
Procedure, shortened: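 Spontaneous field potentials and impedance recorded by MEA at 37°C, 5% CO2 in hiPSC-CM monolayers (50 K/well, fibronectin-coated), 5-min baseline before compound; final DMSO 0.1%. Values are percent change from baseline, mean ± SD, compared with DMSO by Wilcoxon-Mann Whitney, interpreted against DMSO tolerance intervals.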

Compound: C#Cc1cccc(Nc2ncnc3cc(OCCOC)c(OCCOC)cc23)c1 [Erlotinib]
- BR (beat rate) % change from baseline (0.3 µM, 2h): 3±3%
- Beating below threshold, number of observations/total well numbers (0.3 µM, 2h): 0/5
- Cessation of beating, number of observations/total well numbers (0.3 µM, 2h): 0/5
- EAD, number of observations/total well numbers (0.3 µM, 2h): 0/5
- FPD (field-potential duration), % change from baseline (0.3 µM, 2h): 0.6±0.9%
- FPDc (field-potential duration corrected by beat-rate), % change from baseline (0.3 µM, 2h): 1.6±1.1%
- Flat T-wave-like, number of observations/total well numbers (0.3 µM, 2h): 0/5
- BR (beat rate) % change from baseline (0.3 µM, 24h): -1±5%
- Beating below threshold, number of observations/total well numbers (0.3 µM, 24h): 0/5
- Cessation of beating, number of observations/total well numbers (0.3 µM, 24h): 0/5
- EAD, number of observations/total well numbers (0.3 µM, 24h): 0/5
- FPD (field-potential duration), % change from baseline (0.3 µM, 24h): 7.8±3.3%
- FPDc (field-potential duration corrected by beat-rate), % change from baseline (0.3 µM, 24h): 7.4±1.9%
- Flat T-wave-like, number of observations/total well numbers (0.3 µM, 24h): 0/5
- BR (beat rate) % change from baseline (0.3 µM, 48h): -12±1%
- Beating below threshold, number of observations/total well numbers (0.3 µM, 48h): 0/5
- Cessation of beating, number of observations/total well numbers (0.3 µM, 48h): 0/5
- EAD, number of observations/total well numbers (0.3 µM, 48h): 0/5
- FPD (field-potential duration), % change from baseline (0.3 µM, 48h): 16.2±1.3%
- FPDc (field-potential duration corrected by beat-rate), % change from baseline (0.3 µM, 48h): 11.5±0.7%
- Flat T-wave-like, number of observations/total well numbers (0.3 µM, 48h): 0/5
- BR (beat rate) % change from baseline (0.3 µM, 72h): -8±2%
- Beating below threshold, number of observations/total well numbers (0.3 µM, 72h): 0/5
- Cessation of beating, number of observations/total well numbers (0.3 µM, 72h): 0/5
- EAD, number of observations/total well numbers (0.3 µM, 72h): 0/5
- FPD (field-potential duration), % change from baseline (0.3 µM, 72h): 14.6±3.1%
- FPDc (field-potential duration corrected by beat-rate), % change from baseline (0.3 µM, 72h): 11.4±2.8%
- Flat T-wave-like, number of observations/total well numbers (0.3 µM, 72h): 0/5
- BR (beat rate) % change from baseline (0.3 µM, 96h): -14±1%
- Beating below threshold, number of observations/total well numbers (0.3 µM, 96h): 0/5
- Cessation of beating, number of observations/total well numbers (0.3 µM, 96h): 0/5
- EAD, number of observations/total well numbers (0.3 µM, 96h): 0/5
- FPD (field-potential duration), % change from baseline (0.3 µM, 96h): 21.2±1.9%
- FPDc (field-potential duration corrected by beat-rate), % change from baseline (0.3 µM, 96h): 15.1±1.6%
- Flat T-wave-like, number of observations/total well numbers (0.3 µM, 96h): 0/5
- BR (beat rate) % change from baseline (1 µM, 2h): 1±1%
- Beating below threshold, number of observations/total well numbers (1 µM, 2h): 0/5
- Cessation of beating, number of observations/total well numbers (1 µM, 2h): 0/5
- EAD, number of observations/total well numbers (1 µM, 2h): 0/5
- FPD (field-potential duration), % change from baseline (1 µM, 2h): 3.4±1%
- FPDc (field-potential duration corrected by beat-rate), % change from baseline (1 µM, 2h): 3.8±0.8%
- Flat T-wave-like, number of observations/total well numbers (1 µM, 2h): 0/5
- BR (beat rate) % change from baseline (1 µM, 24h): 0±5%
- Beating below threshold, number of observations/total well numbers (1 µM, 24h): 0/5
- Cessation of beating, number of observations/total well numbers (1 µM, 24h): 0/5
- EAD, number of observations/total well numbers (1 µM, 24h): 0/5
- FPD (field-potential duration), % change from baseline (1 µM, 24h): 5.5±5.8%
- FPDc (field-potential duration corrected by beat-rate), % change from baseline (1 µM, 24h): 5.6±4%
- Flat T-wave-like, number of observations/total well numbers (1 µM, 24h): 0/5
- BR (beat rate) % change from baseline (1 µM, 48h): -13±3%
- Beating below threshold, number of observations/total well numbers (1 µM, 48h): 0/5
- Cessation of beating, number of observations/total well numbers (1 µM, 48h): 0/5
- EAD, number of observations/total well numbers (1 µM, 48h): 0/5
- FPD (field-potential duration), % change from baseline (1 µM, 48h): 16.6±3.6%
- FPDc (field-potential duration corrected by beat-rate), % change from baseline (1 µM, 48h): 11.3±2.2%
- Flat T-wave-like, number of observations/total well numbers (1 µM, 48h): 0/5
- BR (beat rate) % change from baseline (1 µM, 72h): -9±2%
- Beating below threshold, number of observations/total well numbers (1 µM, 72h): 0/5
- Cessation of beating, number of observations/total well numbers (1 µM, 72h): 0/5
- EAD, number of observations/total well numbers (1 µM, 72h): 0/5
- FPD (field-potential duration), % change from baseline (1 µM, 72h): 14.7±3.9%
- FPDc (field-potential duration corrected by beat-rate), % change from baseline (1 µM, 72h): 11±3.3%
- Flat T-wave-like, number of observations/total well numbers (1 µM, 72h): 0/5
- BR (beat rate) % change from baseline (1 µM, 96h): -16±2%
- Beating below threshold, number of observations/total well numbers (1 µM, 96h): 0/5
- Cessation of beating, number of observations/total well numbers (1 µM, 96h): 0/5
- EAD, number of observations/total well numbers (1 µM, 96h): 0/5
- FPD (field-potential duration), % change from baseline (1 µM, 96h): 22.4±3.5%
- FPDc (field-potential duration corrected by beat-rate), % change from baseline (1 µM, 96h): 15.1±2.5%
- Flat T-wave-like, number of observations/total well numbers (1 µM, 96h): 0/5
- BR (beat rate) % change from baseline (3 µM, 72h): -10±2%
- Beating below threshold, number of observations/total well numbers (3 µM, 72h): 0/5
- Cessation of beating, number of observations/total well numbers (3 µM, 72h): 0/5
- EAD, number of observations/total well numbers (3 µM, 72h): 0/5
- FPD (field-potential duration), % change from baseline (3 µM, 72h): 10.9±3.3%
- FPDc (field-potential duration corrected by beat-rate), % change from baseline (3 µM, 72h): 7.1±2.8%
- Flat T-wave-like, number of observations/total well numbers (3 µM, 72h): 0/5
- BR (beat rate) % change from baseline (3 µM, 96h): -18±2%
- Beating below threshold, number of observations/total well numbers (3 µM, 96h): 0/5
- Cessation of beating, number of observations/total well numbers (3 µM, 96h): 0/5
- EAD, number of observations/total well numbers (3 µM, 96h): 0/5
- FPD (field-potential duration), % change from baseline (3 µM, 96h): 18.9±1.9%
- FPDc (field-potential duration corrected by beat-rate), % change from baseline (3 µM, 96h): 11.7±1.1%
- Flat T-wave-like, number of observations/total well numbers (3 µM, 96h): 0/5
- BR (beat rate) % change from baseline (3 µM, 2h): 1±2%
- Beating below threshold, number of observations/total well numbers (3 µM, 2h): 0/5
- Cessation of beating, number of observations/total well numbers (3 µM, 2h): 0/5
- EAD, number of observations/total well numbers (3 µM, 2h): 0/5
- FPD (field-potential duration), % change from baseline (3 µM, 2h): 2±3%
- FPDc (field-potential duration corrected by beat-rate), % change from baseline (3 µM, 2h): 2.4±2.4%
- Flat T-wave-like, number of observations/total well numbers (3 µM, 2h): 0/5
- BR (beat rate) % change from baseline (3 µM, 24h): 2±3%
- Beating below threshold, number of observations/total well numbers (3 µM, 24h): 0/5
- Cessation of beating, number of observations/total well numbers (3 µM, 24h): 0/5
- EAD, number of observations/total well numbers (3 µM, 24h): 0/5
- FPD (field-potential duration), % change from baseline (3 µM, 24h): 0.1±4%
- FPDc (field-potential duration corrected by beat-rate), % change from baseline (3 µM, 24h): 0.7±3%
- Flat T-wave-like, number of observations/total well numbers (3 µM, 24h): 0/5
- BR (beat rate) % change from baseline (3 µM, 48h): -13±3%
- Beating below threshold, number of observations/total well numbers (3 µM, 48h): 0/5
- Cessation of beating, number of observations/total well numbers (3 µM, 48h): 0/5
- EAD, number of observations/total well numbers (3 µM, 48h): 0/5
- FPD (field-potential duration), % change from baseline (3 µM, 48h): 11±2.4%
- FPDc (field-potential duration corrected by beat-rate), % change from baseline (3 µM, 48h): 5.9±1.1%
- Flat T-wave-like, number of observations/total well numbers (3 µM, 48h): 0/5
- wells with flat T-wave (10 µM (highest concentration)): One well on 5
- BR (beat rate) % change from baseline (10 µM, 2h): 1±1%
- Beating below threshold, number of observations/total well numbers (10 µM, 2h): 0/5
- Cessation of beating, number of observations/total well numbers (10 µM, 2h): 0/5
- EAD, number of observations/total well numbers (10 µM, 2h): 0/5
- FPD (field-potential duration), % change from baseline (10 µM, 2h): 3.5±0.9%
- FPDc (field-potential duration corrected by beat-rate), % change from baseline (10 µM, 2h): 3.9±1.1%
- Flat T-wave-like, number of observations/total well numbers (10 µM, 2h): 0/5
- BR (beat rate) % change from baseline (10 µM, 24h): -1±7%
- Beating below threshold, number of observations/total well numbers (10 µM, 24h): 0/5
- Cessation of beating, number of observations/total well numbers (10 µM, 24h): 0/5
- EAD, number of observations/total well numbers (10 µM, 24h): 0/5
- FPD (field-potential duration), % change from baseline (10 µM, 24h): 7.2±5.8%
- FPDc (field-potential duration corrected by beat-rate), % change from baseline (10 µM, 24h): 6.3±4.1%
- Flat T-wave-like, number of observations/total well numbers (10 µM, 24h): 1/5
- BR (beat rate) % change from baseline (10 µM, 48h): -15±4%
- Beating below threshold, number of observations/total well numbers (10 µM, 48h): 0/5
- Cessation of beating, number of observations/total well numbers (10 µM, 48h): 0/5
- EAD, number of observations/total well numbers (10 µM, 48h): 0/5
- FPD (field-potential duration), % change from baseline (10 µM, 48h): 15.4±2.7%
- FPDc (field-potential duration corrected by beat-rate), % change from baseline (10 µM, 48h): 8.7±1.6%
- Flat T-wave-like, number of observations/total well numbers (10 µM, 48h): 1/5
- BR (beat rate) % change from baseline (10 µM, 72h): -13±4%
- Beating below threshold, number of observations/total well numbers (10 µM, 72h): 0/5
- Cessation of beating, number of observations/total well numbers (10 µM, 72h): 0/5
- EAD, number of observations/total well numbers (10 µM, 72h): 0/5
- FPD (field-potential duration), % change from baseline (10 µM, 72h): 16.4±6.7%
- FPDc (field-potential duration corrected by beat-rate), % change from baseline (10 µM, 72h): 10.6±6%
- Flat T-wave-like, number of observations/total well numbers (10 µM, 72h): 1/5
- BR (beat rate) % change from baseline (10 µM, 96h): -19±2%
- Beating below threshold, number of observations/total well numbers (10 µM, 96h): 0/5
- Cessation of beating, number of observations/total well numbers (10 µM, 96h): 0/5
- EAD, number of observations/total well numbers (10 µM, 96h): 0/5
- FPD (field-potential duration), % change from baseline (10 µM, 96h): 25±8.1%
- FPDc (field-potential duration corrected by beat-rate), % change from baseline (10 µM, 96h): 16±6.6%
- Flat T-wave-like, number of observations/total well numbers (10 µM, 96h): 1/5
- arrhythmic-like events (all concentrations tested): no arrhythmic-like events were observed
- changes in BR (all concentrations tested): nor significant changes in BR
- prolongation of FPD / FPDc (all concentrations tested): did not observe any physiologically relevant prolongation in FPD and FPDc
- effect on hiPSC-CMs electrophysiology or cytotoxicity (up to ∼ three times the estimated fCmax): did not detect any significant effect on hiPSC-CMs electrophysiology or cytotoxicity

— article PMC10364322, “Evaluation of chronic drug-induced electrophysiological and cytotoxic effects using human-induced pluripotent stem cell-derived cardiomyocytes (hiPSC-CMs)” (Frontiers in Pharmacology, 2023)
